The values that follow come from patent US8952037B2, “Heteroaryloxycarbocyclyl compounds as PDE10 inhibitors” (Amgen Inc., priority 2010, dated 2015).

The term IC50 denotes the midpoint of a concentration-inhibition curve.

One experiment concerns the target PDE10. Put plainly: MPDE10A7 enzyme inhibition, IMAP TR-FRET assay. In kind it is biochemical. As to conditions: read-out: PDE10 IC50. How it is done:
MPDE10A7 Enzyme Activity and Inhibition
Enzyme Activity. An IMAP TR-FRET assay was used to analyze the enzyme activity (Molecular Devices Corp., Sunnyvale Calif.). 5 μL, of serial diluted PDE10A (BPS Bioscience, San Diego, Calif.) or tissue homogenate was incubated with equal volumes of diluted fluorescein labeled cAMP or cGMP for 60 min in 384-well polystyrene assay plates (Corning, Corning, N.Y.) at room temperature. After incubation, the reaction was stopped by adding 60 μL, of diluted binding reagents and was incubated for 3 hours to overnight at room temperature. The plates were read on an Envision (Perkin Elmer, Waltham, Mass.) for time resolved fluorescence resonance energy transfer. The data were analyzed with GraphPad Prism (La Jolla, Calif.).
Enzyme Inhibition. To check the inhibition profile, 5 μL, of serial diluted compounds were incubated with 5 μL, of diluted PDE10 enzyme (BPS Bioscience, San Diego, Calif.) or tissue homogenate in a 384-well polystyrene assay plate (Corning, Corning, N.Y.) for 30 min at room temperature. After incubation, 10 μL, of diluted fluorescein labeled cAMP or cGMP substrate were added and incubated for 60 min at room temperature. The reaction was stopped by adding 60 μL of diluted binding reagents and plates were read on an Envision (Perkin Elmer, Waltham, Mass.) for time resolved fluorescence resonance energy transfer. The data were analyzed with GraphPad Prism (La Jolla, Calif.).
For orientation: In TR-FRET formats the signal depends on donor and acceptor labels being close together.
For `Clc1ccc(N[C@H]2C[C@H](Oc3ncccc3C3CCOCC3)C2)nc1` [Example 111, 5-chloro-N-((1R,3R)-3-((3-(tetrahydro-2H-pyran-4-yl)pyridin-2-yl)oxy)cyclobutyl)pyridin-2-amine], the IC50 was determined as 83.7 nM. Turning to `CC(=O)N1CCC(c2cccnc2OC2CC(NS(=O)(=O)c3ccc(C)cc3)C2)CC1` [Example 115, N-((1R,3R)-3-((3-(1-acetylpiperidin-4-yl)pyridin-2-yl)oxy)cyclobutyl)-4-methylbenzenesulfonamide], the IC50 was found to be 916 nM. For `FC1(F)CCN(c2nccnc2OC2CC(Nc3nc4ccccc4s3)C2)CC1` [Example 99, N-((1S,3S)-3-((3-(4,4-difluoropiperidin-1-yl)pyrazin-2-yl)oxy)cyclobutyl)benzo[d]thiazol-2-amine], the IC50 is 17.7 nM. `Clc1ccc(N[C@H]2C[C@@H](Oc3ncccc3C3CCOCC3)C2)nc1` [Example 110, 5-chloro-N-((1S,3S)-3-((3-(tetrahydro-2H-pyran-4-yl)pyridin-2-yl)oxy)cyclobutyl)pyridin-2-amine]: the IC50 is 26.2 nM. Regarding `N#Cc1ccc(N[C@H]2C[C@@H](Oc3ncccc3C3CCOCC3)C2)nc1` [Example 106, 6-(((1S,3S)-3-((3-(tetrahydro-2H-pyran-4-yl)pyridin-2-yl)oxy)cyclobutyl)amino)nicotinonitrile], the IC50 turned out to be 590 nM. `FC(F)(F)c1ccc(NC2CC(Oc3ncncc3C3CCOCC3)C2)nc1` [Example 117, N-((1S,3S)-3-((5-(tetrahydro-2H-pyran-4-yl)pyrimidin-4-yl)oxy)cyclobutyl)-5-(trifluoromethyl)pyridin-2-amine]: the IC50 turned out to be 321 nM. As to `F[C@H]1CCN(c2nccnc2OC2CC(Nc3nc4ccccc4s3)C2)C1` (stereo partly drawn) [Example 97, N-((1S,3S)-3-((3-(3-fluoropyrrolidin-1-yl)pyrazin-2-yl)oxy)cyclobutyl)benzo[d]thiazol-2-amine], the IC50 worked out at 3.35 nM. Regarding `Fc1ccc(C2CCOCC2)c(OC2CC(Nc3nc4ccccc4s3)C2)n1` [Example 105, N-((1S,3S)-3-((6-fluoro-3-(tetrahydro-2H-pyran-4-yl)pyridin-2-yl)oxy)cyclobutyl)benzo[d]thiazol-2-amine], the IC50 came to 0.758 nM.

Take “TRANS-BENZOTHIAZOL-2-YL-{3-[5-FLUORO-3-(TETRAHYDRO-PYRAN-4-YL)-PYRIDIN-2-YL]-CYCLOBUTYL}-AMINE [Example 5B]”: the IC50 stood at 0.1 nM.

For `CN1CCC(c2nccnc2O[C@H]2C[C@@H](Nc3nc4ccccc4s3)C2)CC1` [Example 74, N-((1S,3S)-3-((3-(1-methylpiperidin-4-yl)pyrazin-2-yl)oxy)cyclobutyl)benzo[d]thiazol-2-amine], the IC50 was determined as 49.8 nM.

Regarding `FC(F)(F)c1ccc(NC2CC(Oc3ncncc3C3CCOCC3)C2)nc1` [Example 116, N-((1R,3R)-3-((5-(tetrahydro-2H-pyran-4-yl)pyrimidin-4-yl)oxy)cyclobutyl)-5-(trifluoromethyl)pyridin-2-amine], the IC50 worked out at 959 nM. In the case of `FC(F)(F)c1ccc(N[C@H]2C[C@H](Oc3ncccc3C3CCOCC3)C2)nc1` [Example 108, N-((1R,3R)-3-((3-(tetrahydro-2H-pyran-4-yl)pyridin-2-yl)oxy)cyclobutyl)-5-(trifluoromethyl)pyridin-2-amine], the IC50 was 436 nM. Turning to `CC(=O)N1CCC(c2cccnc2OC2CC(NS(=O)(=O)c3ccc(C)cc3)C2)CC1` [Example 114, N-((1S,3S)-3-((3-(1-acetylpiperidin-4-yl)pyridin-2-yl)oxy)cyclobutyl)-4-methylbenzenesulfonamide], the IC50 amounted to 12400 nM. `O=C1CCN(c2nccnc2OC2CC(Nc3nc4ccccc4s3)C2)CC1` [Example 98, 1-(3-((1S,3S)-3-(benzo[d]thiazol-2-ylamino)cyclobutoxy)pyrazin-2-yl)piperidin-4-one]: the concentration for half-maximal inhibition (IC50) stood at 21.1 nM. For the molecule `N#Cc1ccc(N[C@H]2C[C@H](Oc3ncccc3C3CCOCC3)C2)nc1` [Example 107, 6-(((1R,3R)-3-((3-(tetrahydro-2H-pyran-4-yl)pyridin-2-yl)oxy)cyclobutyl)amino)nicotinonitrile], the IC50 is 865 nM. Same read-out and setting: the value for `FC(F)(F)c1ccc(N[C@H]2C[C@@H](Oc3ncccc3C3CCOCC3)C2)nc1` [Example 109, N-((1S,3S)-3-((3-(tetrahydro-2H-pyran-4-yl)pyridin-2-yl)oxy)cyclobutyl)-5-(trifluoromethyl)pyridin-2-amine] was 106 nM; that for `CC(O)C1CCN(c2nccnc2OC2CC(Nc3nc4ccccc4s3)C2)CC1` [Example 102, 1-(1-(3-((1S,3S)-3-(benzo[d]thiazol-2-ylamino)cyclobutoxy)pyrazin-2-yl)piperidin-4-yl)ethanol] was 10.8 nM; that for `O=C(CO)N1CCC(c2nccnc2OC2CC(Nc3nc4ccccc4s3)C2)CC1` [Example 73, 1-(4-(3-((1S,3S)-3-(benzo[d]thiazol-2-ylamino)cyclobutoxy)pyrazin-2-yl)piperidin-1-yl)-2-hydroxyethanone] was 4.81 nM.

Still in this experiment, the particulars now being: separated enantiomers; absolute stereochemistry not determined, value can be for either enantiomer of the pair; read-out: IC50.
For `N#C[C@H]1CCN(c2nccnc2OC2CC(Nc3nc4ccccc4s3)C2)C1` (stereo partly drawn) [Example 96, (S)-1-(3-((1S,3R)-3-(benzo[d]thiazol-2-ylamino)cyclobutoxy)pyrazin-2-yl)pyrrolidine-3-carbonitrile], the half-maximal inhibitory concentration (IC50) was determined as 5.27 nM. Regarding `OC[C@@H]1CCCN(c2nccnc2OC2CC(Nc3nc4ccccc4s3)C2)C1` (stereo partly drawn) [Example 92, ((R)-1-(3-((1S,3S)-3-(benzo[d]thiazol-2-ylamino)cyclobutoxy)pyrazin-2-yl)piperidin-3-yl)methanol], the IC50 was 2.81 nM. For `C[C@H]1CCN(c2nccnc2OC2CC(Nc3nc4ccccc4s3)C2)C1` (stereo partly drawn) [Example 93, N-((1S,3S)-3-((3-((R)-3-methylpyrrolidin-1-yl)pyrazin-2-yl)oxy)cyclobutyl)benzo[d]thiazol-2-amine], the IC50 came out at 3.24 nM. As for `N#C[C@@H]1CCN(c2nccnc2OC2CC(Nc3nc4ccccc4s3)C2)C1` (stereo partly drawn) [Example 95, (R)-1-(3-((1S,3S)-3-(benzo[d]thiazol-2-ylamino)cyclobutoxy)pyrazin-2-yl)pyrrolidine-3-carbonitrile], the IC50 came out at 0.728 nM.

For `OC[C@H]1CCCN(c2nccnc2OC2CC(Nc3nc4ccccc4s3)C2)C1` (stereo partly drawn) [Example 91, ((S)-1-(3-((1S,3R)-3-(benzo[d]thiazol-2-ylamino)cyclobutoxy)pyrazin-2-yl)piperidin-3-yl)methanol], the IC50 came out at 26 nM. Still for that read-out and setting: for `C[C@H]1CCN(c2nccnc2OC2CC(Nc3nc4ccccc4s3)C2)C1` (stereo partly drawn) [Example 94, N-((1R,3S)-3-((3-((S)-3-methylpyrrolidin-1-yl)pyrazin-2-yl)oxy)cyclobutyl)benzo[d]thiazol-2-amine] the value was 8.02 nM.
